Data reported in PMC8012331, “Drug-induced hepatic steatosis in absence of severe mitochondrial dysfunction in HepaRG cells: proof of multiple mechanism-based toxicity” (Cell Biology and Toxicology, 2020).

Key:
[1] = system: permeabilized HepaRG cells; assay: Oxygen consumption in permeabilized HepaRG cells (Seahorse); assay type: cell-based, human; details: for EC20 values for inhibition of O2 consumption, Glutamate + malate / EC20 values for inhibition of O2 consumption, Octanoyl-L-carnitine / EC20 values for inhibition of O2 consumption, Palmitoyl-CoA + L-carnitine / EC20 values for inhibition of O2 consumption, Palmitoyl-L-carnitine: state 3, mean ± SD, 2-3 runs
Method: Cryopreserved differentiated HepaRG cells (HPR116, Biopredic International) were thawed and seeded at 36,000 cells/well in Seahorse XFe96 cell culture microplate (Agilent) in HepaRG® Thawing/Plating/General Purpose Medium Supplement with antibiotics (Biopredic International) combined with 100 mL of William’s Medium E (Sigma) and incubated at 37 °C with 5% CO2. The day after, medium was replaced by HepaRG Maintenance/Metabolism Medium Supplement with antibiotics (Biopredic International) combined with 100 mL of William’s Medium E. […] Two technical replicates were carried out per condition in two to three independent experimental runs.

phospho-IRE1α (Ser724) = assay: Western blot phospho-IRE1α in HepaRG cells; assay type: cell-based, human
Method: Cells were lysed in ice-cold CelLytic M buffer (C2978; Sigma Aldrich) containing phosphatase and protease inhibitors from Roche Applied Science (Penzberg, Germany). Protein concentration was determined using the Pierce BCA Protein Assay Kit (Thermo Fisher Scientific) and equal amounts of protein were diluted with NuPAGE LDS Sample Buffer (Thermo Fisher Scientific). Samples (ca. 25 μg of proteins) were then separated by SDS-PAGE using NuPAGE 4–12% Bis-Tris gels (Thermo Fisher Scientific). Proteins were transferred to PVDF membranes (BioRad) and Ponceau S staining was used to confirm equal loading and transfer. Membranes were blocked in 7.5% milk in TBST (10 mM Tris–HCl, 100 mM NaCl, 0.02% Tween 20) for 1 h at room temperature and incubated overnight at 4 °C with antibodies against phospho-IRE1α (Ser724) (Abcam, ab124945), IRE1α (Cell Signaling, 3294), or HSC70 (Santa Cruz, sc-7298), whose dilutions were 1:1000. […] Protein content was quantified by densitometry with ImageJ software (National Institutes of Health, Bethesda, MD).

[2] = system: de novo lipogenesis (DNL); assay: DNL from [2-14C]acetic acid in HepaRG cells; assay type: cell-based, human; details: 4 days, vs control
apoC3 secretion = assay: apoC3 level in culture medium (HTRF), HepaRG cells; assay type: cell-based, human; details: 4 days, culture medium, vs control
Method: Briefly, HepaRG cells were seeded in 96-well plates at a density of 2.6 × 10^4 cells/cm^2 and were first incubated in William’s E medium supplemented with 10% FBS (50% FBS from Eurobio and 50% FBS from GE Healthcare), 100 U/mL penicillin, 100 μg/mL streptomycin, 2 mM glutamine, 5 μg/mL insulin, and 50 μM hydrocortisone hemisuccinate. […] During this 1-month period, the culture medium was renewed three times a week. […] HepaRG cells were next cultured in the same FBS/DMSO conditions and incubated for 4 days with each drug at different concentrations. Culture medium was renewed every day and all investigations were performed after 96 h (i.e., 24 h after the fourth treatment). These investigations were mostly performed in 96-well plates except for western blot analysis, for which 6-well plates were used. Experiments were carried out on passages 9 to 16. All drugs (except DPEN), etomoxir, lomitapide, tunicamycin, thapsigargin, and TUDCA were dissolved in DMSO. DPEN was dissolved in water.
Apolipoprotein C3 (apoC3) level was measured using the Human Apolipoprotein C3 kit from Cisbio Bioassays (Codolet, France), according to the manufacturer’s instructions. Briefly, 10 μL of supernatants was incubated with two different specific anti-human apoC3 antibodies, one donor and one acceptor. The detection principle of apoC3 is based on HTRF® (Homogeneous Time Resolved Fluorescence), a time-resolved FRET (Förster Resonance Energy Transfer) technology. After 2 h of incubation, light emission was measured with the Infinite F Nano+ microplate reader (Tecan, Männedorf, Switzerland). ApoC3 level was calculated utilizing standard curve, based on the ratio of A665 nm/A615 nm, and normalized to the total cellular protein content. Results were expressed in comparison to control cells.

ERN1 (IRE1α) = assay: RT-qPCR ERN1 mRNA in HepaRG cells; assay type: cell-based, human; details: 4 days, vs control
Outline: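 DNase-treated total RNA from HepaRG cells reverse-transcribed and quantified by SYBR Green RT-qPCR. Expression normalised to GAPDH and given as relative values by the 2^−ΔΔCt method.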

[3] = system: fatty acid translocase (FAT, also known as CD36); assay: RT-qPCR FAT/CD36 mRNA in HepaRG cells; assay type: cell-based, human; details: 4 days, vs control
Method: Total RNA was extracted with the Nucleospin RNA isolation system purchased from Macherey-Nagel (Düren, Germany), which included a DNase treatment step. Quantification of isolated RNAs was assessed using a Nanodrop 1000 (Thermo Fisher Scientific, Waltham, MA). RNAs were reverse-transcribed into cDNAs using the High-Capacity cDNA Reverse Transcription Kit purchased from Applied Biosystems (Woolston, UK). Gene expression was assessed by real-time quantitative PCR analysis (RT-qPCR) using SYBR Green PCR Master Mix (Applied Biosystems) and a 384-well QuantStudio™ 7 Flex Real-Time PCR System (Thermo Fisher Scientific). Sequences of the primers used to measure gene expression are presented in Supplementary Table 3. Expression of GAPDH was chosen as reference and the 2^−ΔΔCt calculation method was used to express the relative expression of each selected gene.

[4] = Maximum plasma concentration (Cmax) in patients; assay type: in vivo, human; details: worked out from cited Cmax in patients
[5] = patients, ref given per drug, cited from earlier work; for Cmax: read-out: Maximum plasma concentration (Cmax) in patients

| Concentration corresponding to 100xCmax [4] [µM] | Structure (SMILES) | EC20 for inhibition of O2 consumption, all substrates ([1]; all four substrates) | EC20 values for inhibition of O2 consumption, Glutamate + malate [1] [µM] | EC20 values for inhibition of O2 consumption, Octanoyl-L-carnitine [1] [µM] | EC20 values for inhibition of O2 consumption, Palmitoyl-CoA + L-carnitine [1] [µM] | EC20 values for inhibition of O2 consumption, Palmitoyl-L-carnitine [1] [µM] | Protein level of phospho-IRE1α (pIRE1α) (phospho-IRE1α (Ser724)) | Effect on DNL [2] | Effect on apoC3 secretion (apoC3 secretion) | ERN1 (IRE1α) mRNA level (ERN1 (IRE1α)) | FAT/CD36 mRNA level [3] | Maximum plasma concentration (Cmax) in patients [5] [ng/mL] | Cmax [5] [µM] |
| --- | --- | --- | --- | --- | --- | --- | --- | --- | --- | --- | --- | --- | --- |
| 1900 | CO[C@H]1/C=C/O[C@@]2(C)Oc3c(C)c(O)c4c(O)c(c(/C=N/N5CCN(C)CC5)c(O)c4c3C2=O)NC(=O)/C(C)=C\C=C\[C@H](C)[C@H](O)[C@@H](C)[C@@H](O)[C@@H](C)[C@H](OC(C)=O)[C@@H]1C [RIF, rifampicin] | above 200 μM | > 200 | > 200 | > 200 | > 200 | increased protein level | curb this metabolic pathway | reduced the secretion | enhanced IRE1α mRNA level | this effect was not observed | ≤ 15600 | ≤ 19 |
| 2200 | COc1ccc2c(c1)c(CC(=O)O)c(C)n2C(=O)c1ccc(Cl)cc1 [INDO, indomethacin] |  | 119 ± 20 | 150 ± 11 | 79 ± 8 | 163 ± 26 | increased protein level | increased DNL | reduced the secretion | enhanced IRE1α mRNA level | significantly augmented | ≤ 8000 | ≤ 22 |
